Patent US20260184707A1, “PHARMACEUTICAL COMPOUNDS FOR THE TREATMENT OF COMPLEMENT MEDIATED DISORDERS” (ALEXION PHARMACEUTICALS, INC., priority 2022, published 2026)

target: T1, Human complement C1s enzyme (Homo sapiens, UniProt P09871); experiment: Human C1s enzyme assay; type: biochemical; conditions: human complement C1s enzyme 1.16 nM, substrate Z-L-Lys-SBzl, A405; read-out: IC50 (Stars)
T1 construct: purified from human serum, Complement Technology, Inc; purchased Complement Technology, Inc; host or cells: human serum (plasma-derived native protein)
T1 sequence (P09871 438-688 limits assumed): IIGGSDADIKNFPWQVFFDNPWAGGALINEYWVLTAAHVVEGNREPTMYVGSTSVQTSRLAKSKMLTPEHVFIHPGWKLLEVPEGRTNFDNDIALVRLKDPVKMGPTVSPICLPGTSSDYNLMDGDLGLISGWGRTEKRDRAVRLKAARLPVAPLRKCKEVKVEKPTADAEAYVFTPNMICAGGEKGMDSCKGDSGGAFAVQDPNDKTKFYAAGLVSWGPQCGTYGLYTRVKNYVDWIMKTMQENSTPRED
T1 sequence (P09871 16-437 partner limits assumed): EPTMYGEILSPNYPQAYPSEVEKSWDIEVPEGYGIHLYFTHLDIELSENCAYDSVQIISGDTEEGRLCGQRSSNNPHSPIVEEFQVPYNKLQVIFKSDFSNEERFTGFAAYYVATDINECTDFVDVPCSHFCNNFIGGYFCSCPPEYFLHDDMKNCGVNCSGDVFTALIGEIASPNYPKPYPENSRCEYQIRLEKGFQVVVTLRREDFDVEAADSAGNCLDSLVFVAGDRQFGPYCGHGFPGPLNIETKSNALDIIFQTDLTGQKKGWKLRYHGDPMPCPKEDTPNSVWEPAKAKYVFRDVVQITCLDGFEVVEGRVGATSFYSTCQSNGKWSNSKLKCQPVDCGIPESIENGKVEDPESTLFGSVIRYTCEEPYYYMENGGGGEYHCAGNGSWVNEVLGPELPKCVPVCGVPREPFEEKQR
Procedure, shortened: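 Thioesterase activity followed colorimetrically (DTNB, A405, 30-s reads) using 100 μM Z-L-Lys-SBzl substrate. Enzyme, human serum-derived C1s at 1.16 nM final, was incubated with test compound for 5 min, room temperature, pH 7.5 Tris buffer with 1 M NaCl. Rate-versus-concentration data fitted by nonlinear regression for IC50.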

SMILES	IC50
Cc1ccc(-c2ncc(NCCCc3ccccc3)c(=O)n2CC(=O)NCc2cc3cnccc3[nH]2)c(F)c1 [Compound 437, N-((1H-pyrrolo[3,2-c]pyridin-2-yl)methyl)-2-(2-(2-fluoro-4-methylphenyl)-6-oxo-5-((3-phenylpropyl)amino)pyrimi-din-1(6H)-yl)acetamide]	< 0.1 µM
O=C(Cn1c(-c2ccccc2)ncc(NCCCc2ccc(OC(F)F)cc2)c1=O)NCc1cc2cnccc2[nH]1 [Compound 34, N-((1H-pyrrolo[3,2-c]pyridin-2-yl)methyl)-2-(5-((3-(4-(difluoromethoxy)phenyl)prop-yl)amino)-6-oxo-2-phenyl-pyrimidin-1(6H)-yl)acetamide]	< 0.1 µM
O=C(Cn1c(-c2ccccc2)cnc(NCCCc2ccccc2)c1=O)N[C@H](CO)c1cc2cnccc2[nH]1 [Compound 13, (S)-N-(2-hydroxy-1-(1H-pyr-rolo[3,2-c]pyridin-2-yl)ethyl)-2-(2-oxo-6-phenyl-3-((3-phen-ylpropyl)amino)pyrazin-1(2H)-yl)acetamide]	0.1 to 1 µM
COc1ccc(-c2cc(C(=O)Nc3cnc(-c4ccccc4)n(CC(=O)NCc4cc5cnccc5[nH]4)c3=O)on2)cc1 [Compound 109, N-(1-(2-(((1H-pyrrolo[3,2-c]pyridin-2-yl)methyl)amino)-2-oxoethyl)-6-oxo-2-phenyl-1,6-dihydropyrimidin-5-yl)-3-(4-methoxyphenyl)isoxazole-5-carboxamide]	< 0.1 µM
O=C(Cn1c(-c2ccc(OC(F)(F)F)cc2)ncc(NCc2ccc3oc4ccccc4c3c2)c1=O)NCc1cc2cnccc2[nH]1 [Compound 136, N-((1H-pyrrolo[3,2-c]pyridin-2-yl)methyl)-2-(5-((dibenzo [b,d]furan-2-ylmethyl)amino)-6-oxo-2-(4-(trifluoromethoxy)-phenyl)pyrimidin-1(6H)-yl)-acetamide]	< 0.1 µM
O=C(Cn1c(-c2ccccc2)ncc(NCCCCOc2ccccc2)c1=O)NCc1cc2cnccc2[nH]1 [Compound 11, N-((1H-pyrrolo[3,2-c]pyridin-2-yl)methyl)-2-(6-oxo-5-((4-phenoxybutyl)amino)-2-phenylpyrimidin-1(6H)-yl)acetamide]	< 0.1 µM
O=C(Cn1c(-c2ccccc2)ncc(NCc2ccc3oc4ccccc4c3c2)c1=O)NCc1cc2cnccn2c1 [Compound 144, 2-(5-((dibenzo[b,d]furan-2-ylmethyl)amino)-6-oxo-2-phenylpyrimidin-1(6H)-yl)-N-(pyrrolo[1,2-a]pyrazin-7-ylmethyl)acetamide]	> 1 µM
CP(=O)(O)c1ccc(CCCNc2cnc(-c3ccccc3)n(CC(=O)NCc3cc4cnccc4[nH]3)c2=O)cc1 [Compound 91, (4-(3-((1-(2-(((1H-pyrrolo[3,2-c]pyridine-2-yl)methyl)amino)-2-oxoethyl)-6-oxo-2-phenyl-1,6-dihydropyrimidin-5-yl)amino)propyl)phenyl)(methyl)phosphinic acid]	< 0.1 µM
O=C(Cn1c(-c2ccccc2)ncc(NCc2coc(-c3ccccc3)n2)c1=O)NCc1cc2cnccc2[nH]1 [Compound 233, N-((1H-pyrrolo[3,2-c]pyridin-2-yl)methyl)-2-(6-oxo-2-phen-yl-5-(((2-phenyloxazol-4-yl)-methyl)amino)pyrimidin-1(6H)-yl)acetamide]	< 0.1 µM
O=C(Cn1c(-c2ccc(OCCOc3ccc(F)cc3)cc2)ncc(NCc2ccc3oc4ccccc4c3c2)c1=O)NCc1cc2cnccc2[nH]1 [Compound 154, N-((1H-pyrrolo[3,2-c]pyridine-2-yl)methyl)-2-(5-((dibenzo[b,d]furan-2-ylmethyl)amino)-2-(4-(2-(4-fluorophenoxy)ethoxy)phenyl)-6-oxopyrimidin-1(6H)-yl)acetamide]	< 0.1 µM
O=C(Cn1c(-c2ccccc2)ncc(NC(=O)c2cccc(Oc3ccccc3)c2)c1=O)NCc1cc2cnccc2[nH]1 [Compound 58, N-(1-(2-(((1H-pyrrolo[3,2-c]pyridin-2-yl)methyl)amino)-2-oxoethyl)-6-oxo-2-phenyl-1,6-dihydropyrimidin-5-yl)-3-phen-oxybenzamide]	< 0.1 µM
O=C(Cn1c(-c2ccccc2)ncc(NC(=O)c2ccc(Oc3ccc(C(F)(F)F)cc3)cc2)c1=O)NCc1cc2cnccc2[nH]1 [Compound 50, N-(1-(2-(((1H-pyrrolo[3,2-c]pyridin-2-yl)methyl)amino)-2-oxoethyl)-6-oxo-2-phenyl-1,6-dihydropyrimidin-5-yl)-4-(4-(trifluoromethyl)phenoxy)-benzamide]	< 0.1 µM
O=C(Cn1c(-c2ccccc2)ncc(NCc2cc3ccc2CCc2ccc(cc2)CC3)c1=O)NCc1cc2cnccc2[nH]1 [Compound 43, 2-(5-((1,4(1,4)-dibenzena-cyclohexaphane-1(2)-ylmeth-yl)amino)-6-oxo-2-phenylpyr-imidin-1(6H)-yl)-N-((1H-pyr-rolo[3,2-c]pyridin-2-yl)meth-yl)acetamide]	> 1 µM

Next, values leading:

IC50	SMILES
< 0.1 µM	C[C@@H](Nc1ncc(N2CCOCC2)n(CC(=O)NCc2cc3cnccc3[nH]2)c1=O)c1ccc2oc3ccccc3c2c1 [Compound 407, (R)—N-((1H-pyrrolo[3,2-c]pyridine-2-yl)methyl)-2-(3-((1-(dibenzo[b,d]furan-2-yl)ethyl)amino)-6-morpholino-2-oxopyrazin-1(2H)-yl)acetamide]
< 0.1 µM	O=C(Cn1c(N2CCOCC2)ncc(NCCCc2ccccc2)c1=O)NCc1cc2cnccc2[nH]1 [Compound 412, N-((1H-pyrrolo[3,2-c]pyridine-2-yl)methyl)-2-(2-morpholino-6-oxo-5-((3-phenylpropyl)amino)pyrimidin-1(6H)-yl)acetamide]
0.1 to 1 µM	C[C@@H](Nc1cnc(OC2CC2)n(CC(=O)NCc2cc3cnccc3[nH]2)c1=O)c1ccc2oc3ccccc3c2c1 [Compound 343, (R)—N-((1H-pyrrolo[3,2-c]pyridine-2-yl)methyl)-2-(2-cyclopropoxy-5-((1-(dibenzo[b,d]furan-2-yl)ethyl)amino)-6-oxopyrimidin-1(6H)-yl)acetamide]
> 1 µM	C[C@@H](Nc1cnc(N2CC3(C2)CC(F)(F)C3)n(CC(=O)NCc2cc3cnccc3[nH]2)c1=O)c1ccc2oc3ccccc3c2c1 [Compound 374, (R)-N-((1H-pyrrolo[3,2-c]pyridin-2-yl)methyl)-2-(5-((1-(dibenzo[b,d]furan-2-yl)ethyl)-amino)-2-(6,6-difluoro-2-aza-spiro[3.3]heptan-2-yl)-6-oxo-pyrimidin-1(6H)-yl)acetamide]
< 0.1 µM	O=C(Cn1c(-c2cccnc2)ncc(NCc2ccc3oc4ccccc4c3c2)c1=O)NCc1cc2cnccc2[nH]1 [Compound 242, N-((1H-pyrrolo[3,2-c]pyridin-2-yl)methyl)-2-(5-((dibenzo [b,d]furan-2-ylmethyl)amino)-6-oxo-2-(pyridin-3-yl)pyrimi-din-1(6H)-yl)acetamide]
< 0.1 µM	O=C(Cn1c(-c2ccc(OC3COC3)cc2)ncc(NCc2ccc3oc4ccccc4c3c2)c1=O)NCc1cc2cnccc2[nH]1 [Compound 130, N-((1H-pyrrolo[3,2-c]pyridine-2-yl)methyl)-2-(5-((dibenzo[b,d]furan-2-ylmethyl)amino)-2-(4-(oxetan-3-yloxy)phenyl)-6-oxopyrimidin-1(6H)-yl)acetamide]
< 0.1 µM	C[C@@H](Nc1cnc(-c2ccc(S(F)(F)(F)(F)F)cc2)n(CC(=O)NCc2cc3cnccc3[nH]2)c1=O)c1ccc2oc3ccccc3c2c1 [Compound 345, (R)-N-((1H-pyrrolo[3,2-c]pyridin-2-yl)methyl)-2-(5-((1-(dibenzo[b,d]furan-2-yl)ethyl)-amino)-6-oxo-2-(4-(penta-fluoro-lambda6-sulfaneyl)-phenyl)pyrimidin-1(6H)-yl)-acetamide]
< 0.1 µM	C[C@H](Nc1ncc(-c2ccccc2)n(CC(=O)NCc2cc3cnccc3[nH]2)c1=O)c1ccc2oc3ccccc3c2c1 [Compound 282, (S)—N-((1H-pyrrolo[3,2-c]pyridine-2-yl)methyl)-2-(3-((1-(dibenzo[b,d]furan-2-yl)ethyl)amino)-2-oxo-6-phenylpyrazin-1(2H)-yl)acetamide]
< 0.1 µM	C[C@H](Nc1cnc(-c2ccco2)n(CC(=O)NCc2cc3cnccc3[nH]2)c1=O)c1ccc2oc3ccccc3c2c1 [Compound 273, (S)-N-((1H-pyrrolo[3,2-c]pyr-idin-2-yl)methyl)-2-(5-((1-(dibenzo[b,d]furan-2-yl)ethyl)-amino)-2-(furan-2-yl)-6-oxo-pyrimidin-1(6H)-yl)acetamide]
< 0.1 µM	O=C(Cn1c(N2CCOCC2)ncc(NC(=O)c2cnc(-c3ccccc3)o2)c1=O)NCc1cc2cnccc2[nH]1 [Compound 408, N-(1-(2-(((1H-pyrrolo[3,2-c]pyridine-2-yl)methyl)amino)-2-oxoethyl)-2-morpholino-6-oxo-1,6-dihydropyrimidin-5-yl)-2-phenyloxazole-5-carboxamide]
